For one assay, the target named is full-length human LSD1 (Homo sapiens (Human), UniProt O60341). The experiment in a line: In vitro enzyme inhibition assay LSD-1 (TR-FRET). The following applies: H3K4me1-biotin peptide. In kind it is biochemical. As for the experimental part: This assay determines the ability of a test compound to inhibit LSD1 demethylase activity.
The enzymatic assay of LSD1 activity is based on Time Resolved-Fluorescence Resonance Energy Transfer (TR-FRET) detection.
Plates were read by EnVision Multilabel Reader in TR-FRET mode (excitation at 320 nm, emission at 615 nm and 665 nm) after 1 hour incubation at room temperature.
The ability of the compounds disclosed herein to inhibit LSD1 activity was quantified and the respective IC50 value was determined.

Assay [1] concerns CD11b expression in THP-1 (AML) cells. The experiment in a line: LSD1 CD11b cellular assay (flow cytometry). The following applies: Homo sapiens, 96 h, THP-1 cells, 4 days. In kind it is cell-based. Here is the method: To analyze LSD1 inhibitor efficacy in cells, a CDL11b flow cytometry assay was performed. LSD1 inhibition induces CD11b expression in THP-1 (AML) cells which can be measured by flow cytometry. […] LSD 1 test compounds were serially diluted in DMSO. The dilutions were added to each well accordingly to a final concentration of 0.2% DMSO. The cells were incubated at 37 degrees Celsius in 5% CO2 for 4 days. 250 μL of each well was transferred to a well in a 96 well round bottom plate. The plate was centrifuged at 1200 rpm at 4 degrees Celsius in a Beckman Coulter Alegra 6KR centrifuge for 5 minutes. The media was removed leaving the cells at the bottom of the wells. The cells were washed in 100 μL cold HBSS (Hank's Balanced Salt Solution) plus 2% BSA (Bovine Serum Albumin) solution and centrifuged at 1200 rpm at 4 degrees Celsius for 5 minutes. The wash was removed. […] The cells were centrifuged and washed two times in 100 μl HBSS plus 2% BSA. After the final spin the cells were resuspended in 100 μL HBSS plus 2% BSA containing 1 ug/mL DAPI (4′,6-diamidino-2-phenylindole). The cells were then analyzed by flow cytometry in a BD FACSAria machine. Cells were analyzed for CD11b expression. The percent of CD11b expressing cells for each inhibitor concentration was used to determine an IC50 curve for each compound analyzed.
Background: In flow cytometry, cells or beads pass a laser one at a time.

pIC50: −log10 of the molar value.

For orientation: pIC50 means −log10 of the IC50, conventionally taken in molar units. A lower pIC50 goes with a high IC50.

As for `Cc1c2cc(-n3c(-c4ccc(C#N)c(F)c4)nc(C(=O)N4CC[C@H](N(C)C)C4)c3C)ccc2nn1C` [Example 102, 4-[4-[(3S)-3-(Dimethylamino)pyrrolidine-1-carbonyl]-1-(2,3-dimethylindazol-5-yl)-5-methylimidazol-2-yl]-2-fluorobenzonitrile], the pIC50 (against full-length human LSD1; in assay [1]) was more than 7.00 throughout.

Regarding `Cn1cc2cc(-c3c(-c4ccc(C#N)c(F)c4)cc(C(=O)N4CCC[C@@H](N)C4)n3C[C@H](O)CO)ccc2n1` [Example 39, 4-(5-((R)-3-aminopiperidine-1-carbonyl)-1-((S)-2,3-dihydroxypropyl)-2-(2-methyl-2H-indazol-5-yl)-1H-pyrrol-3-yl)-2-fluorobenzonitrile], the pIC50 (against full-length human LSD1; in assay [1]) was more than 7.00 in each case.

For the molecule `CN[C@H]1CCN(C(=O)c2nc(-c3ccc(C#N)c(F)c3)n(-c3cc(F)c4nn(C)cc4c3)c2C)C1` [Example 51, 2-Fluoro-4-[1-(7-fluoro-2-methylindazol-5-yl)-5-methyl-4-[(3S)-3-(methylamino)pyrrolidine-1-carbonyl]imidazol-2-yl]benzonitrile], the pIC50 (on full-length human LSD1; in assay [1]) was more than 7.00 throughout.

For `Cn1cc2cc(-c3c(-c4ccc(C#N)c(F)c4)cc(C(=O)N4CCC[C@@H](N)C4)n3C[C@@H](O)CO)ccc2n1` [Example 38, 4-(5-((R)-3-aminopiperidine-1-carbonyl)-1-((R)-2,3-dihydroxypropyl)-2-(2-methyl-2H-indazol-5-yl)-1H-pyrrol-3-yl)-2-fluorobenzonitrile], the pIC50 (against full-length human LSD1; in assay [1]) was more than 7.00 in each case.

In the case of `CN(C)[C@H]1CCN(C(=O)c2cn(-c3ccc4nn(C)c(Cl)c4c3)c(-c3ccc(C#N)c(F)c3)n2)C1` [Example 57, 4-[1-(3-Chloro-2-methylindazol-5-yl)-4-[(3S)-3-(dimethylamino)pyrrolidine-1-carbonyl]imidazol-2-yl]-2-fluorobenzonitrile], the pIC50 (against full-length human LSD1; in assay [1]) was more than 7.00 each time.

`CN[C@H]1CCN(C(=O)c2nc(-c3ccc(C#N)c(F)c3)n(-c3ccc(OC)c(F)c3)c2F)C1` [Example 68, 2-Fluoro-4-[5-fluoro-1-(3-fluoro-4-methoxyphenyl)-4-[(3S)-3-(methylamino)pyrrolidine-1-carbonyl]imidazol-2-yl]benzonitrile]: the pIC50 (on full-length human LSD1; in assay [1]) was more than 7.00 each time.

In the case of `COc1ccc(-n2c(-c3ccc(C#N)c(F)c3)nc(C(=O)N3CCC[C@@H](N)C3)c2Cl)cc1F` [Example 66, 4-[4-[(3R)-3-Aminopiperidine-1-carbonyl]-5-chloro-1-(3-fluoro-4-methoxyphenyl)imidazol-2-yl]-2-fluorobenzonitrile], the pIC50 (on full-length human LSD1; in assay [1]) was more than 7.00 throughout.

Turning to `COc1ccc(-n2c(-c3ccc(C#N)c(F)c3)nc(C(=O)N[C@H]3CCCNC3)c2Cl)cc1F` [Example 85, 5-Chloro-2-(4-cyano-3-fluorophenyl)-1-(3-fluoro-4-methoxyphenyl)-N-[(3S)-piperidin-3-yl]imidazole-4-carboxamide], the pIC50 against full-length human LSD1 is more than 7.00; in assay [1], 6.00 to 7.00.

`Cn1nc2ccc(-n3c(-c4ccc(C#N)c(F)c4)nc(C(=O)N4CCC[C@@H](N)C4)c3F)cc2c1Cl` [Example 61, 4-[4-[(3R)-3-Aminopiperidine-1-carbonyl]-1-(3-chloro-2-methylindazol-5-yl)-5-fluoroimidazol-2-yl]-2-fluorobenzonitrile]: the negative logarithm of the IC50 (pIC50) (at full-length human LSD1; in assay [1]) was more than 7.00 in each case.

In the case of `Cc1c(C(=O)NC2CCCNC2)nc(-c2ccc(C#N)c(F)c2)n1-c1ccc2nn(C)cc2c1` (stereo not shown) [Example 45, 2-(4-Cyano-3-fluorophenyl)-5-methyl-1-(2-methylindazol-5-yl)-N-piperidin-3-ylimidazole-4-carboxamide], the pIC50 (at full-length human LSD1; in assay [1]) was more than 7.00 in each case.

Take `COc1ccc(-n2c(-c3ccc(C#N)c(F)c3)nc(C(=O)N3CC[C@@H](N)C3)c2C)cc1` [Example 13, 4-[4-[(3R)-3-aminopyrrolidine-1-carbonyl]-1-(4-methoxyphenyl)-5-methylimidazol-2-yl]-2-fluorobenzonitrile]: the figures for the pIC50 (on full-length human LSD1; in assay [1]) were more than 7.00 and 6.00 to 7.00, respectively.

Regarding `CN[C@H]1CCCN(C(=O)c2cn(-c3ccc4nn(C)c(Cl)c4c3)c(-c3ccc(C#N)c(F)c3)n2)C1` [Example 116, 4-[1-(3-Chloro-2-methylindazol-5-yl)-4-[(3S)-3-(methylamino)piperidine-1-carbonyl]imidazol-2-yl]-2-fluorobenzonitrile], the pIC50 (against full-length human LSD1; in assay [1]) was more than 7.00 throughout.

`CN(C)[C@H]1CCN(C(=O)c2nc(-c3ccc(C#N)c(F)c3)n(-c3ccc4nn(C)c(Cl)c4c3)c2Cl)C1` [Example 101, 4-[5-Chloro-1-(3-chloro-2-methylindazol-5-yl)-4-[(3S)-3-(dimethylamino)pyrrolidine-1-carbonyl]imidazol-2-yl]-2-fluorobenzonitrile]: the pIC50 (at full-length human LSD1; in assay [1]) was more than 7.00 each time.

In the case of `Cc1ccc(-c2c(-c3ccc(C#N)c(F)c3)cc(C(=O)N3CCC[C@@H](N)C3)n2CCO)cc1` [Example 4, 4-[5-(3-(R)-amino-piperidine-1-carbonyl)-1-(2-hydroxy-ethyl)-2-p-tolyl-1H-pyrrol-3-yl]-2-fluoro-benzonitrile], the pIC50 (against full-length human LSD1; in assay [1]) was more than 7.00 each time.

In the case of `Cc1c(C(=O)N[C@@H]2CCCN(C)C2)nc(-c2ccc(C#N)c(F)c2)n1-c1ccc2nn(C)cc2c1` [Example 60, 2-(4-Cyano-3-fluorophenyl)-5-methyl-1-(2-methylindazol-5-yl)-N-[(3R)-1-methylpiperidin-3-yl]imidazole-4-carboxamide], the pIC50 (at full-length human LSD1; in assay [1]) was more than 7.00 throughout.

In the case of `CN[C@@H]1CCCN(C(=O)c2nc(-c3ccc(C#N)c(F)c3)n(-c3ccc(OC)cc3)c2F)C1` [Example 74, 2-Fluoro-4-[5-fluoro-1-(4-methoxyphenyl)-4-[(3R)-3-(methylamino)piperidine-1-carbonyl]imidazol-2-yl]benzonitrile], the pIC50 (on full-length human LSD1; in assay [1]) was more than 7.00 in each case.

`CN[C@H]1CCN(C(=O)c2nc(-c3ccc(C#N)c(F)c3)n(-c3cc4c(Cl)n(C)nc4cc3F)c2C)C1` [Example 111, 4-[1-(3-Chloro-6-fluoro-2-methylindazol-5-yl)-5-methyl-4-[(3S)-3-(methylamino)pyrrolidine-1-carbonyl]imidazol-2-yl]-2-fluorobenzonitrile]: the pIC50 (against full-length human LSD1; in assay [1]) was more than 7.00 each time.

As for `CN[C@@H]1CCCN(C(=O)c2nc(-c3ccc(C#N)c(F)c3)n(-c3ccc4nn(C)c(C)c4c3)c2C)C1` [Example 105, 4-[1-(2,3-Dimethylindazol-5-yl)-5-methyl-4-[(3R)-3-(methylamino)piperidine-1-carbonyl]imidazol-2-yl]-2-fluorobenzonitrile], the pIC50 (at full-length human LSD1; in assay [1]) was more than 7.00 in each case.

Take `CN(C)[C@H]1CCN(C(=O)c2cn(-c3ccc4nn(C)cc4c3)c(-c3ccc(C#N)c(F)c3)n2)C1` [Example 99, 4-[4-[(3S)-3-(Dimethylamino)pyrrolidine-1-carbonyl]-1-(2-methylindazol-5-yl)imidazol-2-yl]-2-fluorobenzonitrile]: the pIC50 was more than 7.00 on full-length human LSD1 and 6.00 to 7.00 in assay [1].

With `CN[C@H]1CCN(C(=O)c2nc(-c3ccc(C#N)c(F)c3)n(-c3ccc(OC)cc3)c2C)C1` [Example 69, 2-Fluoro-4-[1-(4-methoxyphenyl)-5-methyl-4-[(3S)-3-(methylamino)pyrrolidine-1-carbonyl]imidazol-2-yl]benzonitrile], the pIC50 (on full-length human LSD1; in assay [1]) was more than 7.00 in each case.

On to `Cc1c(C(=O)NC2CCNC2)nc(-c2ccc(C#N)c(F)c2)n1-c1ccc2nn(C)cc2c1` (stereo not shown) [Example 46, 2-(4-Cyano-3-fluorophenyl)-5-methyl-1-(2-methylindazol-5-yl)-N-pyrrolidin-3-ylimidazole-4-carboxamide], for which the pIC50 (against full-length human LSD1; in assay [1]) was more than 7.00 in each case.

Consider `Cc1c(C(=O)N2CC[C@H](N)C2)nc(-c2ccc(C#N)c(F)c2)n1-c1ccc2c(cnn2C)c1` [Example 24, 4-[4-[(3S)-3-aminopyrrolidine-1-carbonyl]-5-methyl-1-(1-methylindazol-5-yl)imidazol-2-yl]-2-fluorobenzonitrile], for which the pIC50 (against full-length human LSD1; in assay [1]) was more than 7.00 in each case.

With `COc1ccc(-n2c(-c3ccc(C#N)c(F)c3)nc(C(=O)N[C@@H]3CCCNC3)c2Cl)cc1F` [Example 84, 5-Chloro-2-(4-cyano-3-fluorophenyl)-1-(3-fluoro-4-methoxyphenyl)-N-[(3R)-piperidin-3-yl]imidazole-4-carboxamide], the pIC50 (at full-length human LSD1; in assay [1]) was more than 7.00 in each case.
